Measurements reported in publication PMC11582565, “Allostery can convert binding free energies into concerted domain motions in enzymes” (Nature Communications, 2024).

How the values were obtained:
Type in all cases: binding
[1] = target: T1, adenylate kinase (AK_2+, AK) (Escherichia coli, UniProt P69441); assay: single-molecule nanopore (ClyA-AS) recording, ligand-induced current levels M1-M4; conditions: inhibitor; added cis or trans; 400 mM KCl, 15 mM Tris, 2 mM MgCl2, pH 7.5, 22 °C, -90 mV
T1 construct: gene adk; full-length AK (214 residues) with C-terminal extension GKK plus Strep-tag WSHPQFEK kept; pET22b, E. coli BL21(DE3); single enzyme trapped in ClyA-AS nanopore
T1 sequence (P69441 whole entry): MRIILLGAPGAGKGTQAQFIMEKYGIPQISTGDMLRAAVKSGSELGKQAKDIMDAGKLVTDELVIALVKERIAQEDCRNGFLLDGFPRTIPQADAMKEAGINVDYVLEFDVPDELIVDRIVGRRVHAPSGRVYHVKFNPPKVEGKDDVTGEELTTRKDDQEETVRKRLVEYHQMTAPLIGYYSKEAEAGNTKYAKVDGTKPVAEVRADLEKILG

[2] = target: T1, adenylate kinase (AK_2+, AK); assay: single-molecule nanopore (ClyA-AS) recording, Hill fit of LID-closed fraction; conditions: minor component; type II blockades (12 ± 6% of blockades, alternative conformer); Hill coefficient 1.7; 400 mM KCl, 15 mM Tris, 2 mM MgCl2, pH 7.5, 22 °C, -90 mV
[3] = target: T1, adenylate kinase (AK_2+, AK); assay: as above

SMILES | single-molecule nanopore (ClyA-AS) recording, ligand-induced current levels M1-M [1] | KD [2] | Kd [3]
Nc1ncnc2c1ncn2[C@@H]1O[C@H](COP(=O)(O)OP(=O)(O)OP(=O)(O)OP(=O)(O)OP(=O)(O)OC[C@H]2O[C@@H](n3cnc4c(N)ncnc43)[C@H](O)[C@@H]2O)[C@@H](O)[C@H]1O [Ap5A, P^1,P^5-Di-(adenosine-5’)-pentaphosphate] | The addition of Ap5A to either the cis or trans side of the nanopore induced |  | 
Nc1ncnc2c1ncn2[C@@H]1O[C@H](COP(=O)(O)OP(=O)(O)O)[C@@H](O)[C@H]1O [ADP] |  | 123.2 ± 18.1 µM | 45.4 ± 1.6 µM
